# According to ChEMBL document CHEMBL3774365, “Design, synthesis, pharmacological evaluation, and docking study of new acridone-based 1,2,4-oxadiazoles as potential anticonvulsant agents” (Eur J Med Chem, 2016):
# Activity calls are given as the source filed them. The calls are words filed in the database; no cut-off is given here.
# Experiments:
# [1] = Protective index, ratio of TD50 for ip dosed mouse neurotoxicity to ED50 for protection against 60 Hz electroshock-induced seizure in ip dosed mouse; format: toxicity, organism-based; settings: in vivo, read-out: Ratio TD50/ED50
# Mus musculus [2] = experiment: Anticonvulsant activity against pentylenetetrazole-induced seizures in ip dosed mouse incubated for 30 mins prior to pentylenetetrazole challenge measured after 30 mins; format: functional
# [3] = Neurotoxicity in ip dosed mouse assessed as minimal motor impairment measured for 1 min by rotarod test; format: toxicity, organism-based; settings: in vivo
# MDA-MB-231 = experiment: Cytotoxicity against human MDA-MB-231 cells after 48 hrs by MTT assay; format: cell-based; settings: MDA-MB-231, 48 h
# T47D = experiment: Cytotoxicity against human T47D cells after 48 hrs by MTT assay; format: cell-based
# MCF7 = experiment: Cytotoxicity against human MCF7 cells after 48 hrs by MTT assay; format: cell-based; settings: MCF7, 48 h
# [4] = Protective index, ratio of TD50 for ip dosed mouse neurotoxicity to ED50 for protection against PTZ-induced seizure in ip dosed mouse; format: toxicity, organism-based; settings: in vivo, read-out: Ratio TD50/ED50
# Mus musculus [5] = experiment: Anticonvulsant activity against maximal electroshock-induced seizures in ip dosed mouse assessed as protection against hind limb tonic extension incubated for 30 mins prior to 60 Hz maximal electroshock challenge measured for 30 s; format: functional; settings: Hindlimb
# Mus musculus [6] = experiment: Potency index, ratio of phenobarbital ED50 to compound ED50 for protection against maximal electroshock-induced seizures in ip dosed mouse; format: functional
# Mus musculus [7] = experiment: Anticonvulsant activity against pentylenetetrazole-induced seizures in mouse at 1 to 10 mg/kg, ip incubated for 30 mins prior to PTZ challenge measured after 30 mins in presence of benzodiazepine receptor antagonist flumazenil; format: functional, organism-based
SMILES,selectivity ratio [1],ED50 (Mus musculus [2]) [mg/kg],TD50 at 1 min [3] [mg/kg],IC50 (MDA-MB-231) [µM],IC50 (T47D) [µM],IC50 (MCF7) [µM],selectivity ratio [4],ED50 (Mus musculus [5]) [mg/kg],Ratio ED50 (Mus musculus [6]),Activity (Mus musculus [7])
COc1ccc2c(c1)c(=O)c1ccccc1n2Cc1nc(-c2ccc(C)cc2)no1,160,6.32,522,> 50,> 50,> 50,82.4,3.25,–,–
Cc1ccc(-c2noc(Cn3c4ccccc4c(=O)c4cc(Cl)ccc43)n2)cc1,216,6.25,483,> 50,> 50,> 50,77.3,2.24,7,–
Cc1ccc(-c2noc(Cn3c4ccccc4c(=O)c4ccccc43)n2)cc1,214,6.37,538,> 50,> 50,> 50,84.5,2.52,7,–
Cc1ccc(-c2noc(Cn3c4ccccc4c(=O)c4cc(C)ccc43)n2)cc1,196,> 50,542,> 50,> 50,> 50,< 10.8,2.77,7,–
CCc1ccc2c(c1)c(=O)c1ccccc1n2Cc1nc(-c2ccc(C)cc2)no1,59.6,18.9,496,> 50,> 50,> 50,26.1,8.31,–,–
Cc1ccc2c(c1)c(=O)c1ccccc1n2Cc1nc(-c2ccc(Cl)cc2)no1,72.7,15.2,475,> 50,> 50,> 50,31.3,6.53,–,–
COc1ccc(-c2noc(Cn3c4ccccc4c(=O)c4cc(Cl)ccc43)n2)cc1,118,2.08,438,> 50,> 50,> 50,211,3.71,–,inactive
COc1ccc(-c2noc(Cn3c4ccccc4c(=O)c4cc(Br)ccc43)n2)cc1,54.1,6.21,471,> 50,> 50,> 50,75.8,8.71,–,–
COc1ccc(-c2noc(Cn3c4ccccc4c(=O)c4cc(OC)ccc43)n2)cc1,191,2.12,462,> 50,> 50,> 50,217,2.42,7,–
O=c1c2ccccc2n(Cc2nc(-c3ccc(Cl)cc3)no2)c2ccc(Cl)cc12,172,4.16,454,> 50,> 50,> 50,109,2.64,7,–
CN1C(=O)CN=C(c2ccccc2)c2cc(Cl)ccc21 [DIAZEPAM],–,0.68,–,–,–,–,–,0.98,–,–
COc1ccc2c(c1)c(=O)c1ccccc1n2Cc1nc(-c2ccc(Cl)cc2)no1,150,5.22,553,> 50,> 50,> 50,106,3.68,–,–
COc1cc([C@@H]2c3cc4c(cc3[C@@H](O[C@@H]3O[C@@H]5CO[C@@H](C)O[C@H]5[C@H](O)[C@H]3O)[C@H]3COC(=O)[C@H]23)OCO4)cc(OC)c1O [ETOPOSIDE],–,–,–,15.7,11.8,–,–,–,–,–
Cc1ccc(-c2noc(Cn3c4ccccc4c(=O)c4cc(Br)ccc43)n2)cc1,116,> 50,594,> 50,> 50,> 50,< 11.9,5.12,–,–
O=c1c2ccccc2n(Cc2nc(-c3ccc(Cl)cc3)no2)c2ccccc12,148,5.78,528,> 50,> 50,> 50,91.3,3.57,–,–
CCC1(c2ccccc2)C(=O)NC(=O)NC1=O [PHENOBARBITAL],3.3,12.4,68.9,–,–,–,5.5,20.6,–,–
O=c1c2ccccc2n(Cc2nc(-c3ccc(Cl)cc3)no2)c2ccc(Br)cc12,178,7.57,512,> 50,> 50,> 50,67.6,2.87,7,–
